# Assay results from patent US9199028B2, “Use of entrained neutrophils to treat metastatic and micrometastatic disease in at risk patients” (MEMORIAL SLOAN-KETTERING CANCER CENTER, priority 2010, dated 2015).
# Entries after “also recorded” stand apart in the source; their conditions may differ.
# B1: CCL4: CC chemokine (protein, UniProt P13236 24-92, looked up)
# C-C motif chemokine 4: APMGSDPPTACCFSYTARKLPRNFVVDYYETSSLCSQPAVVFQTKRSKQVCADPSESWVQEYVYDLELN
# B2: CXCL16: CXC chemokine (protein, UniProt Q9H2A7 30-254, looked up)
# C-X-C motif chemokine 16: NEGSVTGSCYCGKRISSDSPPSVQFMNRLRKHLRAYHRCLYYTRFQLLSWSVCGGNKDPWVQELMSCLDLKECGHAYSGIVAHQKHLLPTSPPISQASEGASSDIHTPAQMLLSTLQSTQRPTLPVGSLSSDKELTRPNETTIHTAGHSLAAGPEAGENQKQPEKNAGPTARTSATVPVLCLLAIIFILTAALSYVLCKRRRGQSPQSSPDLPVHYIPVAPDSNT
# Columns and labels:
# MDA-MB-231 cells = assay: In vitro killing assay: human neutrophils co-cultured with luciferase labelled MDA-MB-231 cells; assay type: cell-based; settings: naïve human neutrophils:tumor cells 1:1, chemokine 100 ng/ml (rhG-CSF 20 ng/ml), overnight
# Source text: Luciferase is under a constitutive promoter so cell death results in a decrease in luciferase activity because there is no transcription/translation of the lucierferase gene. The assay itself requires lysing of the cell to release the luciferase to mix with the luciferin and measure the luminescence. But it isn't that they dying cell releases luciferase. More signal means more luciferase which means more live cells. […]. […] Nave human neutrophils were co-cultured with MDA-MB-231 cells. […] Cells were seeded at a ratio of human neutrophils:human tumor cells=1:1.
# (§1) Antibodies used for immunohistochemistry—MMP9, F4/80 and CCR2 (all from AbCam), Myeloperoxidase (Dako), Ly-6G and Cd11b (both from BD), and Cleaved Caspase 3 (Cell signalling). Antibodies used for western blotting—Actin (Sigma), CCL2 (AbCam) and CCL5 (R&D) p-SMAD2 (cell signalling). Antibodies used for FACS analysis FITC-Ly-6G, FITC-Cd11b, FITC-F4/80, FITC-Cd34 and FITC-c-Kit (all from BD) and VEGFR1-AP (R&D). Neutrophil Depletion Neutrophil depletion was achieved using daily IP injections of 12.5 μg Rat anti-Gr-1 antibody (BD) or Rat anti-Ly-6G antibody (BD) starting on day 3 post tumour engraftment. Starting on day 14, neutrophil depleting antibodies were administered twice daily. Control mice were injected with […] Rat isotype control (BD). Neutrophil depletion was monitored by manual blood differentials and FACS analysis. Flow Cytometry Peripheral blood was collected into EDTA-coated tubes, washed and resuspended in FACS buffer solution (PBS, 2% heat-inactivated FCS, 5 mM EDTA, and 0.02% sodium azide). The samples were blocked with […] and then incubated with fluorophore-conjugated antibodies. Erythrocytes were then lysed with FACS lysing solution (BD Biosciences) and the cell suspensions were analyzed on a FACSCalibur (BD Biosciences). Colony Formation Assay Female nude mice were orthotopically injected with 5×10^6 puromicin resistant 4T1 cells. On days 7 and 14 post tumour engraftment the mice were sacrificed and perfused with PBS. The lungs and livers were removed, washed with PBS and dissociated with Collagenase A (Roche). The single cell suspension was then plated onto puromicin containing media and selected for 14 day. Colonies were stained with Methylene-Blue and counted manually. Mouse Neutrophil Purification Whole blood was collected by cardiac puncture using heparinized (Sigma) syringe. The blood was diluted with 5 volumes of PBS containing 0.5% BSA and subjected to a discontinuous Histopaque (Sigma) gradient (1.077 and 1.119). Neutrophils were collected from the 1.077-1.119 interface, lymphocytes and monocytes collected from the plasma-1.077 interface. RBCs were eliminated by hypotonic lysis. The cells were washed twice with PBS-BSA and re-suspended in OptiMEM (Invitrogen) 0.5% FBS in a final concentration of 2×10^6 cells/ml. Neutrophil purity and viability were determined visually and were consistently >98%. Human Neutrophil Purification As part of a Memorial Sloan-Kettering Cancer Center institutionally approved protocol, blood samples (˜10 cc) were collected from healthy volunteers or from patients who were already having blood drawn for pre-surgical testing. Patients were consented accordingly as part of the approved protocol. […] Patients had either mastectomies or lumpectomies planned and had blood drawn prior to definitive surgical removal of their primary tumor or chemotherapy. Blood samples were transferred to the lab for analysis no more than 1 hour post-blood draw. Heparinzed blood (20 U/ml final) was mixed with an equal volume of Dextran 500 (3% in saline) and incubated 30 minutes at room temperature. The leukocyte-rich supernatant was layered on top of histopaque 1077 (Sigma) and centrifuged. Neutrophils, collected in the pellet fraction, were resuspended in 10 ml 0.2% NaCl for 30 seconds to remove contaminating erythrocytes. Isotonicity was restored by the addition of 10 ml 1.6% NaCl. […]
# 4T1 cells [1] = assay: In vitro killing assay: TENs co-cultured with 4T1 cells in the presence of inhibitors or TGF-β; assay type: cell-based, mouse; settings: for TEN mediated in vitro killing of 4T1 cells in the presence of TGF-β: picomolar concentrations (up to 200 pMolar); for neutrophil (TEN) mediated tumour-cell killing in the presence of inhibitor: TENs + 4T1 cells overnight, Apocynin 100 μM, Catalase 1,000 u/ml, Superoxide Dismutase 1,000 u/ml, Taurine 50 mM
# Source text: as §1, with “NaCl. Neutrophils were than washed three times in Hanks's balanced salt solution and resuspended in RPMI+FCS2%. In vitro Killing Assay Luciferase labelled cells (5,000/well) were plated on a 96-well, flat bottom white polystyrene tissue culture plate in OptiMEM 0.5% FBS (mouse neutrophils) or RPMI 2% FBS (human neutrophils). 4 hours later, purified neutrophils (100,000/well for mouse neutrophils and 5000 for human neutrophils) were added to the plated tumour cells and co-cultured overnight.” for “NaCl.”
# 4T1 cells [2] = assay: In vitro killing assay: naïve mouse neutrophils co-cultured with luciferase labelled 4T1 cells in the presence of chemokines; assay type: cell-based; settings: naïve mouse neutrophils co-cultured with 4T1 cells, chemokine 20 ng/ml, overnight
# Source text: as §1, with “NaCl. Neutrophils were than washed three times in Hanks's balanced salt solution and resuspended in RPMI+FCS2%. In vitro Killing Assay Luciferase labelled cells (5,000/well) were plated on a 96-well, flat bottom white polystyrene tissue culture plate in OptiMEM 0.5% FBS (mouse neutrophils) or RPMI 2% FBS (human neutrophils). 4 hours later, purified neutrophils (100,000/well for mouse neutrophils and 5000 for human neutrophils) were added to the plated tumour cells and co-cultured overnight.” for “NaCl.”
# 4T1 cells [3] = assay: In vivo stimulation of neutrophils with chemokines, purified neutrophils co-cultured with 4T1 cells; assay type: cell-based, mouse; settings: healthy mice treated in vivo with G-CSF alone or G-CSF plus chemokine
# Procedure: A. To test which chemokines may participate in the stimulation of neutrophils, neutrophils purified from healthy mice were co-culture with luciferase labeled 4T1 cells in the presence (20 ng/ml of chemokine) or absence of certain chemokines for an overnight incubation. […] B. To test which chemokines are sufficient for in vivo stimulation of neutrophils healthy mice were treated with G-CSF (to boost neutrophil numbers) and either CCL2, CCL5 or CXCL1. Control mice were treated with G-CSF alone. Neutrophils were purified from these mice and co-cultured with Luciferase-labeled 4T1 cells. […] Conclusion—CCL2 and to a lesser degree CCL5 can stimulate tumor cell killing both in vitro and in vivo.
Molecule,neutrophil cytotoxicity / neutrophil mediated killing of MDA-MB-231 cells (MDA-MB-231 cells),neutrophil mediated killing of 4T1 cells (tumor cell viability by luciferase activity) (4T1 cells [2]),further results
"hCCL5: human CCL5 from R&D, used at 100 ng/ml",induces neutrophil mediated cell killing; also recorded: induce the killing of human MDA-MB-231 in vitro,,
"hCCL2: human CCL2 from R&D, used at 100 ng/ml",induces neutrophil mediated cell killing; also recorded: induce the killing of human MDA-MB-231 in vitro,,
TGF-β,,,TEN mediated in vitro killing of 4T1 cells in the presence of TGF-β (4T1 cells [1]): dramatic inhibitory effect; TEN mediated in vitro killing of 4T1 cells in the presence of TGF-β (4T1 cells [1]; listed as TGF-Beta): dramatically inhibited TENs cytotoxicity towards tumour cells
CXCL12: CXC chemokine,significantly increase neutrophil cytotoxicity,no significant effect on tumor-cell viability,
CXCL1: CXC chemokine,to a lesser extent CXCL1 significantly increase neutrophil cytotoxicity,no significant effect on tumor-cell viability,viability of 4T1 cells co-cultured with neutrophils purified from chemokine treated mice (4T1 cells [3]): did not induce a reduction in cell viability
"mCCL2: mouse CCL2 from R&D, used at 20 ng/ml",,induces neutrophil mediated cell killing; also recorded: induced tumour cell killing in vitro,
NCCS(=O)(=O)O [Taurine],,,neutrophil (TEN) mediated tumour-cell killing in the presence of inhibitor (4T1 cells [1]): does not inhibit tumour-cell killing; neutrophil (TEN) mediated tumour-cell killing in the presence of inhibitor (4T1 cells [1]; listed as taurine): did not reduce tumour-cell killing
CCL3: CC chemokine,significantly increase neutrophil cytotoxicity,no significant effect on tumor-cell viability,
Superoxide Dismutase,,,neutrophil (TEN) mediated tumour-cell killing in the presence of inhibitor (4T1 cells [1]): does not; neutrophil (TEN) mediated tumour-cell killing in the presence of inhibitor (4T1 cells [1]; listed as superoxide dismutase): did not inhibit cell death
Catalase,,,neutrophil (TEN) mediated tumour-cell killing in the presence of inhibitor (4T1 cells [1]): completely inhibits tumour-cell killing; neutrophil (TEN) mediated tumour-cell killing in the presence of inhibitor (4T1 cells [1]; listed as catalase): completely inhibits cell killing
B1,but not CCL4 significantly increase neutrophil cytotoxicity,significant reduction in tumor cell viability,
B2,significantly increase neutrophil cytotoxicity,significant reduction in tumor cell viability,
